Laboratory results as given in patent US11661431B2, “Thienopyrrole compounds” (Gilead Sciences, Inc., priority 2021, dated 2023).

What was measured:
TLR7 = TLR7 (Homo sapiens (Human), UniProt Q9NYK1); assay: TLR7 human peripheral blood mononuclear cell (PBMC) cell-based assay (GS-986 as agonist; IL-6 and IFNα readout); details: human PBMCs, TLR7 agonist GS-986 at 400 nM, 6 hours, antagonist potency; read-out: TLR-7 EC50
How it was run: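 IL-6 and IFNα released into supernatant were quantified by electrochemiluminescence immunoassay. Before that, human PBMCs at 100,000 per well received a 10-point antagonist titration for 1 h, then TLR7 agonist for 6 more hours, all at 37 °C, 5% CO2.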

TLR8 = TLR8 (Homo sapiens (Human), UniProt Q9NR97); assay: TLR8 human peripheral blood mononuclear cell (PBMC) cell-based assay (Compound A as agonist; TNFα and IL12p40 readout); details: human PBMCs, TLR8 agonist Compound A at 800 nM, 6 hours, antagonist potency; read-out: TLR-8 EC50
Chain of TLR8 (Q9NR97 27-1041): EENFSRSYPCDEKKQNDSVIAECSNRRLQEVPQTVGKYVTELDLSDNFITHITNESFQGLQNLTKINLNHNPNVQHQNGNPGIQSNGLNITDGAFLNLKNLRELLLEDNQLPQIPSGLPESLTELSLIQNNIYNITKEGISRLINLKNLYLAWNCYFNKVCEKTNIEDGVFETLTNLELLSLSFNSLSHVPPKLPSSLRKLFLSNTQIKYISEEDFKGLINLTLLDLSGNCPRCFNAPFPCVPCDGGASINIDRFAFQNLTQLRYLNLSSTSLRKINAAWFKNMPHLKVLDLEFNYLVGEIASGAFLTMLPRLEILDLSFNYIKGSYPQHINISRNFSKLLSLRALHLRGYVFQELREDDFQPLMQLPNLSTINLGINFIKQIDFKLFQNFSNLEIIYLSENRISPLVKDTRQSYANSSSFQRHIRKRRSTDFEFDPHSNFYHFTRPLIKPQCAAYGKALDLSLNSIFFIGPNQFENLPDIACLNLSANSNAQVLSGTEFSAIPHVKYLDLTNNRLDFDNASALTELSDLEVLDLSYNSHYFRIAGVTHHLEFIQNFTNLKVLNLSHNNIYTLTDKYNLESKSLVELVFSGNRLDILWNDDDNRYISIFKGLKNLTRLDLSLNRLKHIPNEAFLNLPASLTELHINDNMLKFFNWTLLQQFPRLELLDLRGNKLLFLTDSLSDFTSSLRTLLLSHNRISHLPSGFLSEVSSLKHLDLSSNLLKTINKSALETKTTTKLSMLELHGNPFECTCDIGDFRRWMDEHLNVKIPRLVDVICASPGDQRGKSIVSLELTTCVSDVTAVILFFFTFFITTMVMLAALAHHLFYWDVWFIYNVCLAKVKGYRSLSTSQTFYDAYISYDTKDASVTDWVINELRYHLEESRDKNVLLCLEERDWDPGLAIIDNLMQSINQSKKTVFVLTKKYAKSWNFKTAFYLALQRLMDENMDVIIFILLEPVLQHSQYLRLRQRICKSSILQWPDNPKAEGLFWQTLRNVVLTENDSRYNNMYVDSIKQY

Chain of TLR7 (Q9NYK1 27-1049): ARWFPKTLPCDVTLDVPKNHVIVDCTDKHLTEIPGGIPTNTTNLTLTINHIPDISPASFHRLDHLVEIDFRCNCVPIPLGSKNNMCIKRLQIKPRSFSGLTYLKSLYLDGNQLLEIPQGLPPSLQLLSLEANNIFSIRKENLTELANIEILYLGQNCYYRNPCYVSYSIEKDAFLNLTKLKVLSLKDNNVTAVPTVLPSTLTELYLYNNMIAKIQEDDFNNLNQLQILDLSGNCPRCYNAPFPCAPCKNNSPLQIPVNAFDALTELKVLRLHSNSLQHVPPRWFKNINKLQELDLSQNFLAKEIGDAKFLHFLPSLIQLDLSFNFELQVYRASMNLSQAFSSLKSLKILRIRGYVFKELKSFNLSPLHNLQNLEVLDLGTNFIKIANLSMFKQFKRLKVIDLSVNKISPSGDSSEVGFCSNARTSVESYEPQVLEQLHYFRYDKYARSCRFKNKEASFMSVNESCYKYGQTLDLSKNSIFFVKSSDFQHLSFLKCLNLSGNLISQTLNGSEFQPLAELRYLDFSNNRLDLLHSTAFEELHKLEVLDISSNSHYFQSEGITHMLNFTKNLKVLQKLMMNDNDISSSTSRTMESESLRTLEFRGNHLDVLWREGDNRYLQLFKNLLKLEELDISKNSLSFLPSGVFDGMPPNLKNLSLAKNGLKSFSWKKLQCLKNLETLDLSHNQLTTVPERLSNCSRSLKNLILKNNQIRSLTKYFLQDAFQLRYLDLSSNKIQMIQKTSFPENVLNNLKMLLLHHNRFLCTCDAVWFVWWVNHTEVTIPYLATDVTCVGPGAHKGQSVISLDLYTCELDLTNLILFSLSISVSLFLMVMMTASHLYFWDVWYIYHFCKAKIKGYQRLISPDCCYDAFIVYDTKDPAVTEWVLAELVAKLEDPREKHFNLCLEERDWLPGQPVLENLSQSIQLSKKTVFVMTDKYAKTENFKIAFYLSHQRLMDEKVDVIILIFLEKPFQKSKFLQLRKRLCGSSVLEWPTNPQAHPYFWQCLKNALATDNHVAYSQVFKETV

SMILES	EC50 (TLR7)	EC50 (TLR8)
Cc1c(-c2[nH]c3sc(C4CC5(CCN(CCS(C)(=O)=O)C5)C4)c(C)c3c2C(C)C)cn2ncnc2c1C (single isomer, unassigned) [Example 313, 5-(7,8-dimethyl-[1,2,4]triazolo[1,5-a]pyridin-6-yl)-4-isopropyl-3-methyl-2-(6-(2-(methylsulfonyl)ethyl)-6-azaspiro[3.4]octan-2-yl)-6H-thieno[2,3-b]pyrrole]	2.51 nM	1.19 nM
Cc1c(-c2[nH]c3sc([C@@H]4C[C@@H]5C[C@H]4CN5CC(=O)N(C)CCO)c(C)c3c2C(C)C)cn2ncnc2c1C [Example 266]	1.27 nM	0.33 nM
Cc1c(C2CCNCC2)sc2[nH]c(-c3ccc(C#N)c4ncccc34)c(C(C)C)c12 [Example 247]	0.2 nM	13.5 nM
Cc1c(-c2[nH]c3sc([C@@H]4C[C@@H]5C[C@H]4CN5Cc4cccc(=O)[nH]4)c(C)c3c2C(C)C)cn2ncnc2c1C [Example 170]	< 0.05 nM	0.26 nM
Cc1c(C2CCNCC2)sc2[nH]c(-c3ccc(C#N)c4nccnc34)c(C(C)C)c12 [Example 248]	11.5 nM	106 nM
Cc1c(-c2[nH]c3sc(C4CCC(N5CC6(CCNC6=O)C5)CC4)c(C)c3c2C(C)C)cn2ncnc2c1C (single isomer, unassigned) [Example 306, 2-[4-[5-(7,8-dimethyl-[1,2,4]triazolo[1,5-a]pyridin-6-yl)-4-isopropyl-3-methyl-6H-thieno[2,3-b]pyrrol-2-yl]cyclohexyl]-2,6-diazaspiro[3.4]octan-5-one]	< 0.05 nM	0.49 nM
Cc1c(-c2[nH]c3sc([C@@H]4C[C@@H]5C[C@H]4CN5Cc4n[nH]c(=O)[nH]4)c(C)c3c2C(C)C)cn2ncnc2c1C [Example 152]	0.42 nM	2.86 nM
Cc1c(-c2[nH]c3sc(C4CCC45CN(CC(N)=O)C5)c(C)c3c2C(C)C)cn2ncnc2c1C (single isomer, unassigned) [Example 316, 2-(5-(5-(7,8-dimethyl-[1,2,4]triazolo[1,5-a]pyridin-6-yl)-4-isopropyl-3-methyl-6H-thieno[2,3-b]pyrrol-2-yl)-2-azaspiro[3.3]heptan-2-yl)acetamide]	47.3 nM	108 nM
Cc1c(-c2[nH]c3sc(C4CCC(N5CC[C@@H](F)C5)CC4)c(C)c3c2C(C)C)cn2ncnc2c1C (stereo partly drawn) [Example 303]	< 0.05 nM	2.77 nM
Cc1c(-c2[nH]c3sc(C4CCC(N5CC6(C5)CS(=O)(=O)C6)CC4)c(C)c3c2C(C)C)cn2ncnc2c1C (stereo not drawn) [Example 301]	0.13 nM	5.66 nM
Cc1c(-c2[nH]c3sc([C@@H]4C[C@@H]5C[C@H]4CN5CC(=O)OC(C)(C)C)c(C)c3c2C(C)C)cn2ncnc2c1C [Example 179, tert-butyl 2-((1S,4R,5R)-5-(5-(7,8-dimethyl-[1,2,4]triazolo[1,5-a]pyridin-6-yl)-4-isopropyl-3-methyl-6H-thieno[2,3-b]pyrrol-2-yl)-2-azabicyclo[2.2.1]heptan-2-yl)acetate]	1.71 nM	3.53 nM
Cc1c(-c2[nH]c3sc(C4CCN(C(=O)[C@H]5C[C@@]6(CNCCO6)C5)CC4)c(C)c3c2C(C)C)cn2ncnc2c1C [Example 94, [4-[5-(7,8-dimethyl-[1,2,4]triazolo[1,5-a]pyridin-6-yl)-4-isopropyl-3-methyl-6H-thieno[2,3-b]pyrrol-2-yl]-1-piperidyl]-(5-oxa-8-azaspiro[3.5]nonan-2-yl)methanone]	0.05 nM	2.3 nM
Cc1c(-c2[nH]c3sc(C4CCN(C(=O)C56COC(CN5)C6)CC4)c(C)c3c2C(C)C)cn2ncnc2c1C (stereo not drawn) [Example 107]	< 0.05 nM	6.79 nM
Cc1c(-c2[nH]c3sc(C4CC5(C4)CN(C(=O)[C@H]4COCCN4)C5)c(C)c3c2C(C)C)cn2ncnc2c1C [Example 52]	2.08 nM	1.12 nM
Cc1c(-c2[nH]c3sc(C45CCN(CC(N)=O)CC4C5)c(C)c3c2C(C)C)cn2ncnc2c1C (single isomer, unassigned) [Example 102, 2-[6-[5-(7,8-dimethyl-[1,2,4]triazolo[1,5-a]pyridin-6-yl)-4-isopropyl-3-methyl-6H-thieno[2,3-b]pyrrol-2-yl]-3-azabicyclo[4.1.0]heptan-3-yl]acetamide]	0.09 nM	23.1 nM
Cc1c(-c2[nH]c3sc(C4CCN(C5CCNC5=O)CC4)c(C)c3c2C(C)C)cn2ncnc2c1C (stereo not drawn) [Example 287, 3-[4-[5-(7,8-dimethyl-[1,2,4]triazolo[1,5-a]pyridin-6-yl)-4-isopropyl-3-methyl-6H-thieno[2,3-b]pyrrol-2-yl]-1-piperidyl]pyrrolidin-2-one]	0.43 nM	12.4 nM
Cc1c(-c2[nH]c3sc(C4CC5(CNC5)C4)c(C)c3c2C(C)C)cn2ncnc2c1C [Example 60]	1.81 nM	0.93 nM
Cc1c(-c2[nH]c3sc([C@@H]4C[C@@H]5C[C@H]4CN5Cc4cccn(C(F)F)c4=O)c(C)c3c2C(C)C)cn2ncnc2c1C [Example 172]	3.03 nM	0.82 nM
Cc1c(-c2[nH]c3sc([C@@H]4C[C@@H]5C[C@H]4CN5CC(=O)N[C@H]4C[C@@H](O)C4)c(C)c3c2C(C)C)cn2ncnc2c1C [Example 269]	0.3 nM	0.28 nM
Cc1c(-c2[nH]c3sc([C@@H]4C[C@@H]5C[C@H]4CN5C4COC4)c(C)c3c2C(C)C)cn2ncnc2c1C [Example 167]	0.09 nM	0.45 nM
Cc1c(-c2[nH]c3sc(C4COC5(CCNCC5)C4)c(C)c3c2C(C)C)cn2ncnc2c1C (stereo not drawn) [Example 78, 3-(5-(7,8-dimethyl-[1,2,4]triazolo[1,5-a]pyridin-6-yl)-4-isopropyl-3-methyl-6H-thieno[2,3-b]pyrrol-2-yl)-1-oxa-8-azaspiro[4.5]decane]	0.42 nM	5.44 nM
Cc1c(-c2[nH]c3sc(C4C[C@@H]5C[C@H]4CC5NC4COC4)c(C)c3c2C(C)C)cn2ncnc2c1C (stereo partly drawn) [Example 253, N-((1S,4S)-5-(5-(7,8-dimethyl-[1,2,4]triazolo[1,5-a]pyridin-6-yl)-4-isopropyl-3-methyl-6H-thieno[2,3-b]pyrrol-2-yl)bicyclo[2.2.1]heptan-2-yl)oxetan-3-amine]	0.1 nM	1.06 nM

The remaining lines, values ahead:

EC50 (TLR7)	EC50 (TLR8)	SMILES
0.24 nM	1.74 nM	Cc1cc(-c2[nH]c3sc([C@H]4C[C@@]5(CCN(CC(N)=O)C5)C4)c(C)c3c2C(C)C)cn2ncnc12 [Example 126]
0.42 nM	10.6 nM	Cc1cc(-c2[nH]c3sc([C@H]4C[C@@]5(CCCN(CC(N)=O)C5)C4)c(C)c3c2C(C)C)cn2ncnc12 [Example 141]
0.28 nM	12 nM	Cc1c(-c2ccc(N3CCNCC3)nc2)sc2[nH]c(-c3cc(C)c4ncnn4c3)c(C(C)C)c12 [Example 20, 4-isopropyl-3-methyl-5-(8-methyl-[1,2,4]triazolo[1,5-a]pyridin-6-yl)-2-(6-(piperazin-1-yl)pyridin-3-yl)-6H-thieno[2,3-b]pyrrole]
0.94 nM	10.7 nM	Cc1c(C2CC23CCNCC3)sc2[nH]c(-c3cc(C)c4ncnn4c3)c(C(C)C)c12 (stereo not drawn) [Example 209]
0.18 nM	9.29 nM	Cc1c(C2CCN(C(=O)CN(C)C)CC2)sc2[nH]c(-c3cc(C)c4ncnn4c3)c(C(C)C)c12 [Example 10, 2-(dimethylamino)-1-(4-(4-isopropyl-3-methyl-5-(8-methyl-[1,2,4]triazolo[1,5-a]pyridin-6-yl)-6H-thieno[2,3-b]pyrrol-2-yl)piperidin-1-yl)ethan-1-one]
0.27 nM	9.95 nM	Cc1cc(-c2[nH]c3sc(C(=O)N(C)[C@H]4CCNC4)cc3c2C(C)C)cn2ncnc12 [Example 3]
3.41 nM	24.3 nM	Cc1cc(-c2[nH]c3sc(C4CCN(CC(N)=O)CC4)c(C(F)F)c3c2C(C)C)cn2ncnc12 [Example 162]
0.47 nM	14.8 nM	Cc1c(C23CCN(CC(N)=O)CC2C3)sc2[nH]c(-c3cc(C)c4ncnn4c3)c(C(C)C)c12 (stereo not drawn) [Example 199]
0.59 nM	19.8 nM	Cc1c(C2CCN(C(=O)C3COCC(C)(C)N3)CC2)sc2[nH]c(-c3cc(C)c4ncnn4c3)c(C(C)C)c12 (stereo not drawn) [Example 54]
2.47 nM	14.3 nM	Cc1c(C2CCN(CC3(C)COC3)CC2)sc2[nH]c(-c3cc(C)c4ncnn4c3)c(C(C)C)c12 [Example 11]
0.14 nM	3.71 nM	Cc1c(C(=O)N(C)C2CCN(CCO)CC2)sc2[nH]c(-c3cc(C)c4ncnn4c3)c(C(C)C)c12 [Example 7, N-(1-(2-hydroxyethyl)piperidin-4-yl)-4-isopropyl-N,3-dimethyl-5-(8-methyl-[1,2,4]triazolo[1,5-a]pyridin-6-yl)-6H-thieno[2,3-b]pyrrole-2-carboxamide]
0.68 nM	1.61 nM	Cc1cc(-c2[nH]c3sc(C4CCN(CC(N)=O)CC4)cc3c2C(C)C)cn2ncnc12 [Example 26]
1.74 nM	29.8 nM	Cc1c(C23CC2CN(CC(N)=O)C3)sc2[nH]c(-c3cc(C)c4ncnn4c3)c(C(C)C)c12 (stereo not drawn) [Example 197]
0.2 nM	9.52 nM	Cc1c(C23CNCCC2C3)sc2[nH]c(-c3cc(C)c4ncnn4c3)c(C(C)C)c12 (stereo not drawn) [Example 194]
0.5 nM	5.96 nM	Cc1cc(-c2[nH]c3sc(C(=O)N(C)C4CCN(CCO)CC4)cc3c2C(C)C)cn2ncnc12 [Example 5]
< 0.05 nM	0.36 nM	Cc1c(C2C3CNCC32)sc2[nH]c(-c3cc(C)c4ncnn4c3)c(C(C)C)c12 (stereo not drawn) [Example 201]
1.27 nM	7.11 nM	Cc1c(C2CCN(CCO)CC2)sc2[nH]c(-c3cc(C)c4ncnn4c3)c(C(C)C)c12 [Example 13, 2-(4-(4-isopropyl-3-methyl-5-(8-methyl-[1,2,4]triazolo[1,5-a]pyridin-6-yl)-6H-thieno[2,3-b]pyrrol-2-yl)piperidin-1-yl)ethan-1-ol]
